Results on 2 compounds are retold here after patent US8642593B2, “2,4-pyrimidinediamine compounds and prodrugs and their uses” (Rigel Pharmaceuticals, Inc., priority 2009, dated 2014).

One test deals with T1, Syk kinase (Homo sapiens, UniProt P43405).
T1 construct: purchased Millipore #14-314
As to the kind of experiment: Fluorescence Polarization Syk kinase assay. Format: biochemical. The settings on record: for IC50: Table 2, unit inferred, read-out: FP-based Biochem Syk; for potency compared with the control, biochemical assay: vs control compound. Here is the method: Compounds are tested for the ability to inhibit Syk kinase catalyzed phosphorylation of a peptide substrate in a biochemical fluorescence polarization assay with isolated Syk kinase.
Test compound stock solutions (10 mM) containing are serially diluted in DMSO starting from 2.5 mM and then further diluted to desired concentration of 50 μM (5×) to yield 2% DMSO concentration in kinase buffer (20 mM HEPES, pH 7.4, 5 mM MgCl2, 2 mM MnCl2, 1 mM DTT, 0.1 mg/mL acetylated Bovine Gamma Globulin). The assay is carried out in a black 96 well low volume plate (Molecular Devices, #42-000-0117) by transferring compound in 2% DMSO (0.4% DMSO final) pre-mixed with ATP/substrate (TK2 peptide) in kinase buffer at room temperature. Syk kinase (Millipore, #14-314) is added to a final reaction volume of 20 μL, and the reaction is incubated for 30 minutes at room temperature. […] The reaction is stopped by addition of 20 μL of PTK quench mix containing EDTA (10 mM final)/anti-phosphotyrosine antibody (1× final)/fluorescent phosphopeptide tracer (0.5× final) diluted in FP dilution buffer to stop the reaction to a total volume of 40 μL according to the manufacturer's instructions (Invitrogen). The plate is incubated in the dark for additional 30 minutes at room temperature and then read on a Polarion fluorescence polarization plate reader (Tecan). Data are converted to amount of phosphopeptide present using a calibration curve generated by competition with the phosphopeptide competitor provided in the Tyrosine Kinase Assay Kit, Green (Invitrogen, #P2837).
(Polarisation of emitted light reports the rotation of a fluorescent probe.)

A further test has as its target T2, KDR/VEGFR2 enzyme (Homo sapiens, UniProt P35968).
T2 construct: purchased Millipore #14-630
As to the kind of experiment: Biochemical VEGFR Assay (ELISA). As to conditions: Table 2, unit inferred; read-out: Biochem VEGFR2. As for the experimental part:
Compounds are tested for the ability to inhibit VEGF2 in an ELISA assay. […] Plates are then washed with 1×PBST using a plate washer, then blocked with 2% BSA in 1×PBST (100 μL/well) for 1 hr at room temperature. The NeutrAvidin-coated plates are again washed with 1×PBST using a plate washer.
The mixed test compound/reaction solutions are added to the wells of the NeutrAvidin-coated plates (50 μL/well). 6× enzyme solution (1000 parts kinase buffer, 0.6 parts KDR/VEGFR2 enzyme (50 μg/mL, Millipore, #14-630) is added to all wells except those designated as negative controls. The plates are incubated for 30 minutes on a shaker at room temperature.
The detection reagent is added at 100 μL/well, and the plates are incubated for 60 minutes at room temperature, then washed with 1×PBST using a plate washer.

Test [1] deals with T3, VEGF-induced phosphorylation of VEGFR in HUVEC cells (Homo sapiens, UniProt P35968).
T3 construct: VEGF-induced phosphorylation of VEGFR in HUVEC cells; host or cells: HUVEC cells
The test can be described thus: Cellular VEGFR Assay. As to conditions: for IC50: HUVEC cells, Table 2, unit inferred, read-out: Cellular VEGFR2; for selectivity against VEGF as compared to the control: vs control compound. In kind it is cell-based. Here is the method: The coated plates are then blocked with 2% BSA in PBS for 2 hours.
Cells are washed 1× with PBS. 100 μL starvation medium (EBM2 media, Cambrex, #CC3156, containing 1% BSA and 0.2% FBS) is added and cells are returned to the incubator for 20-24 hours. Test compounds or control drugs are serially diluted in DMSO in a compound plate and further diluted 1:250 in starvation medium. 100 μL, of this 2× concentration is dosed to the cells. […] Plates are then placed on a rocker/shaker at 4° C. for 1 hour.
Phosphorylated VEGFR2 is determined by ELISA. After a wash with TBST, 30 μL/well of the cell lysate is transferred into the anti-human VEGFR2 mAb-coated plates (described above) containing 200 μL/well of 1% BSA in PBS, and incubated with shaking at 4° C. overnight. […] The signal is read using a SpectraMax M5 plate reader.

The target in the next test is T4, Ret kinase (Homo sapiens, UniProt P07949).
T4 construct: purchased Millipore #14-570
T4 sequence (P07949 658-1114 limits assumed): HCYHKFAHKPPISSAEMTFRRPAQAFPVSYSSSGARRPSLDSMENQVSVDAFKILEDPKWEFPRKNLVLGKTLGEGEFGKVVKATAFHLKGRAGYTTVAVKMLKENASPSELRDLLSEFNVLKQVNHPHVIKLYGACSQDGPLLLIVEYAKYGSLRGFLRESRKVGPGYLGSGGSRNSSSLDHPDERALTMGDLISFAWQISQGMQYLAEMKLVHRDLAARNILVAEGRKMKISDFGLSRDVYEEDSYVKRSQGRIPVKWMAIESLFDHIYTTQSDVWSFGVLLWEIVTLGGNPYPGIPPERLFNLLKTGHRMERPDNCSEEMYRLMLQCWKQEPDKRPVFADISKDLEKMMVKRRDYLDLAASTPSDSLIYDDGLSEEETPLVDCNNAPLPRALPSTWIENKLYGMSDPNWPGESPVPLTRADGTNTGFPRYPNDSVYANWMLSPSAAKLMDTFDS
As to the kind of experiment: Biochemical Ret Assay (ELISA-based). As to conditions: for IC50: Table 2, unit inferred, read-out: Biochem Ret; for selectivity over Ret kinase compared with the control: vs control compound. As for the experimental part:
Compounds are tested for the ability to inhibit Ret kinase in an ELISA-based assay. The assay is carried out in a Costar white 96 well plate (Fisher Scientific, #07-200-591) coated overnight with 0.01 mg/mL NeutrAvidin (Pierce, 100 μL/well) at 4° C. The pre-coated 96 well plate is blocked with 2% BSA in PBST buffer for at least 1 h at room temperature before starting the assay. Serially diluted test compound stock solution is prepared separately in DMSO solution starting from 300 μM, and 2 μL/well of this diluted compound (3% DMSO final concentration) is added directly to the NeutrAvidin coated assay plate containing 55.5 μL/well of kinase reaction buffer (20 mM HEPES, pH 7.4, 5 mM MgCl2, 1 mM DTT, 0.01% Brij-35) pre-mixed with ATP and kinase substrate (TK2 peptide). Reaction is initiated by adding 2.5 μL/well Ret kinase (Millipore, #14-570) resulting in a final reaction volume of […]. The reaction is allowed to continue for 30 minutes at room temperature. […] After completing the reaction, the wells are washed three times with PBST and incubated for 1 h at room temperature with 100 μL/well of phosphopeptide detection antibody solution (mixture of 1:10000 diluted mouse anti-pTyr monoclonal antibody (Cell Signal Technology, #9411) and 1:10000 diluted goat HRP-conjugated anti-mouse IgG (Jackson Immunoresearch, #115-035-003)). The plate is washed three times with PBST, developed with supersignal ELISA pico chemiluminescent substrate (Pierce), and read on a SpectraMax M5 microplate reader (Molecular Devices).
(In an ELISA, binding on a coated surface is turned into a signal by an enzyme label.)

T3 sequence (P35968 20-1356): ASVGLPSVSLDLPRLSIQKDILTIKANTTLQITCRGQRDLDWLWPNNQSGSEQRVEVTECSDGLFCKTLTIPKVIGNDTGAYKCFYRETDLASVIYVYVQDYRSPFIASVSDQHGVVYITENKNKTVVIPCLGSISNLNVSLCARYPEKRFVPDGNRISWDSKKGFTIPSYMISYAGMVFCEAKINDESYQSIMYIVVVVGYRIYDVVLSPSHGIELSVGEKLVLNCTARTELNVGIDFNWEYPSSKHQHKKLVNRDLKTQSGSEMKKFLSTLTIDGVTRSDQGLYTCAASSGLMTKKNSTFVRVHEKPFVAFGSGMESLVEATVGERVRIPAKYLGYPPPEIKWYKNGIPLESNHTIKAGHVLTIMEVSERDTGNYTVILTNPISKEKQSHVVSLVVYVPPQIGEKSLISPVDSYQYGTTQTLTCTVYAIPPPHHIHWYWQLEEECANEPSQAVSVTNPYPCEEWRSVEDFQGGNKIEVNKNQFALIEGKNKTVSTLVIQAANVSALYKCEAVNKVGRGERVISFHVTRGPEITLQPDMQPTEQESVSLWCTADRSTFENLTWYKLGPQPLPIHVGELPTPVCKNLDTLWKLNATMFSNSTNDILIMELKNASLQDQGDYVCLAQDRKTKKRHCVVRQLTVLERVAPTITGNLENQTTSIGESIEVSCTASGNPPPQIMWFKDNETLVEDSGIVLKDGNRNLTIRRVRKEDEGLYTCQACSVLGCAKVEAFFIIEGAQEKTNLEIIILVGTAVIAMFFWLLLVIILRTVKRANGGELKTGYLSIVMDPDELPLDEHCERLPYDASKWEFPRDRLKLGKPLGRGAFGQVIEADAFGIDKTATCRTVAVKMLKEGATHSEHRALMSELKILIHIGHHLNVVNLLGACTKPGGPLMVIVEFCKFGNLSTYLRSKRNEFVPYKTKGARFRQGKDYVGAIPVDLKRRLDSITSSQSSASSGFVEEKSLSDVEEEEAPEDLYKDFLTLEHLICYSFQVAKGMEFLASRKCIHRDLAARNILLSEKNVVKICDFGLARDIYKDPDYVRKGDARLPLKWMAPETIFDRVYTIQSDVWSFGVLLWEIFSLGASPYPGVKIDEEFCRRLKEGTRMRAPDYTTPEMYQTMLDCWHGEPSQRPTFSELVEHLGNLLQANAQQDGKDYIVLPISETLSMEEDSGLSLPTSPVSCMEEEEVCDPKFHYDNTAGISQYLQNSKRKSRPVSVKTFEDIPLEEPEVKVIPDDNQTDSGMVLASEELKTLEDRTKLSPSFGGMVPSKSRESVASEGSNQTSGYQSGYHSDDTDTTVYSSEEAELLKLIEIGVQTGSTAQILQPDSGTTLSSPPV
T2 sequence (P35968 790-1356 limits assumed): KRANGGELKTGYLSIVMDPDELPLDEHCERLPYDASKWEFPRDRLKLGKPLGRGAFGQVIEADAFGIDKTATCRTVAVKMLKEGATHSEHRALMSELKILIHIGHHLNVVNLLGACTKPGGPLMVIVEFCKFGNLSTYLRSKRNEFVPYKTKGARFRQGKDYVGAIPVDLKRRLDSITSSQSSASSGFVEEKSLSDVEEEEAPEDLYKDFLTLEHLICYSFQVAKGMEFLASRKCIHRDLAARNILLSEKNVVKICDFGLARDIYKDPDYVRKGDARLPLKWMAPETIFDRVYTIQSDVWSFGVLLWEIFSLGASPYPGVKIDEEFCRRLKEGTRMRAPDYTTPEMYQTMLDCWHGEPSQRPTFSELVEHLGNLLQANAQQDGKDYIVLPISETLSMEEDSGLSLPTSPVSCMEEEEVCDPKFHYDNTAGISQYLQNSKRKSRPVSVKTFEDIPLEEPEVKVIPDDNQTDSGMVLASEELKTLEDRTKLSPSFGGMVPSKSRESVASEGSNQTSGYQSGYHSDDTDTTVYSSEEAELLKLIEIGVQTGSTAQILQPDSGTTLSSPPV

In the case of `CC1(C)Oc2ccc(Nc3nc(Nc4ccc(N5CCOCC5)cc4)ncc3F)nc2NC1=O` [Compound 3, N4-(2,2-Dimethyl-3-oxo-4H-5-pyrido[1,4]oxazin-6-yl)-5-fluoro-N2-(4-morpholinophenyl)-2,4-pyrimidinediamine], the IC50 on Syk kinase is 80 nM; at KDR/VEGFR2 enzyme, 340 nM; in test [1], 5230 nM; at Ret kinase, 6 nM. Further, the “potency compared with the control, biochemical assay” value at Syk kinase was “somewhat less potent than the control”. Besides, the “selectivity against VEGF as compared to the control” value in test [1] is listed as “significantly increased selectivity”. The “selectivity over Ret kinase compared with the control” value on Ret kinase is listed as “significantly more selective”.

As for `CC1(C)Oc2ccc(Nc3nc(Nc4ccc(N5CCOCC5)nc4)ncc3F)nc2NC1=O` [Compound 1, N4-(2,2-Dimethyl-3-oxo-4H-5-pyrido[1,4]oxazin-6-yl)-5-fluoro-N2-[6-morpholinopyridin-3-yl]-2,4-pyrimidinediamine], on Syk kinase, the IC50 was 40 nM and the “potency compared with the control, biochemical assay” value is given as “somewhat less potent than the control”. For the same compound, the IC50 on KDR/VEGFR2 enzyme stood at 770 nM. In addition, in test [1], the IC50 worked out at 16800 nM and the “selectivity against VEGF as compared to the control” value is “significantly increased selectivity”. In addition, at Ret kinase, the IC50 is 48 nM and the “selectivity over Ret kinase compared with the control” value is given as “significantly more selective”.
